From patent US9249125B2, “Pyrazole derivatives as p38 MAP inhibitors” (RESPIVERT LIMITED, priority 2012, dated 2016)

Experiments:
p38 MAPKα = p38 MAPKα (Homo sapiens (Human), UniProt Q16539); experiment: p38 MAPKα enzyme inhibition (FRET, Z-LYTE); type: biochemical
Procedure: (§1) The enzyme inhibitory activities of compounds disclosed herein are determined by FRET using synthetic peptides labelled with both donor and acceptor fluorophores (Z-LYTE, Invitrogen Ltd., Paisley, UK).
The inhibitory activities of test compounds against the p38 MAPKα isoform (MAPK14: Invitrogen), are evaluated indirectly by determining the level of activation/phosphorylation of the down-stream molecule, MAPKAP-K2. The p38 MAPKα protein (80 ng/mL, 2.5 μL) is mixed with the test compound (2.5 μL of either 4 μg/mL, 0.4 μg/mL, 0.04 μg/mL or 0.004 μg/mL) for 2 hr at RT. […] The mixture is incubated for 1 hr at RT. Development reagent (protease, 5 μL) is added for 1 hr prior to detection in a fluorescence microplate reader (Varioskan® Flash, ThermoFisher Scientific).
(§2) In all cases, the site-specific protease cleaves non-phosphorylated peptide only and eliminates the FRET signal. Phosphorylation levels of each reaction are calculated using the ratio of coumarin emission (donor) over fluorescein emission (acceptor), for which low ratios indicate high phosphorylation and high ratios indicate low phosphorylation levels.

cSrc = cSrc (Homo sapiens (Human), UniProt P12931); experiment: c-Src enzyme inhibition (FRET, Z-LYTE); type: biochemical
Chain of cSrc (P12931 whole entry, looked up): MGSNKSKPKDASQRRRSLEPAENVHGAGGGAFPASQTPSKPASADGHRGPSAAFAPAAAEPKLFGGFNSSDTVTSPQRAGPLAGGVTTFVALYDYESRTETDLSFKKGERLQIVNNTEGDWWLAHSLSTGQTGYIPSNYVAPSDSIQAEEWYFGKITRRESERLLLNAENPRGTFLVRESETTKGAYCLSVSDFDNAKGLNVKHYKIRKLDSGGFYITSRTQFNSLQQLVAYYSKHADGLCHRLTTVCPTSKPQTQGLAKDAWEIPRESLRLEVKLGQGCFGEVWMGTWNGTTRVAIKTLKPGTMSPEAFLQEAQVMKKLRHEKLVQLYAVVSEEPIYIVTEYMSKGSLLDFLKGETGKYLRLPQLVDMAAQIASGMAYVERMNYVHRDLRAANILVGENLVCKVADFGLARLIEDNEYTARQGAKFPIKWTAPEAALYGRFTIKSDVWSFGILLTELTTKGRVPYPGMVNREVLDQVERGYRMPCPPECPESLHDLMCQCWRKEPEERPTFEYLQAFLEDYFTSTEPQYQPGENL
Procedure: as §1
(§3) The relevant enzyme (3000 ng/mL or 2000 ng/mL respectively, 2.5 μL) is incubated with the test compound (either 4 μg/mL, 0.4 μg/mL, 0.04 μg/mL, or 0.004 μg/mL, 2.5 μL each) for 2 hr at RT. The FRET peptides (8 μM, 2.5 μL), and appropriate ATP solutions (2.5 μL, 800 μM for c-Src, and 60 μM ATP for Syk) are then added to the enzymes/compound mixtures and incubated for 1 hr. Development reagent (protease, 5 μL) is added for 1 hr prior to detection in a fluorescence microplate reader (Varioskan® Flash, ThermoFisher Scientific).
as §2

Syk = Syk (Homo sapiens (Human), UniProt P43405); experiment: Syk enzyme inhibition (FRET, Z-LYTE); type: biochemical
Procedure: as §1, §3, §2

GSK3α = GSK3α (Homo sapiens (Human), UniProt P49840); experiment: GSK 3α enzyme inhibition (FRET, Z-LYTE); type: biochemical
Chain of GSK3α (P49840 whole entry): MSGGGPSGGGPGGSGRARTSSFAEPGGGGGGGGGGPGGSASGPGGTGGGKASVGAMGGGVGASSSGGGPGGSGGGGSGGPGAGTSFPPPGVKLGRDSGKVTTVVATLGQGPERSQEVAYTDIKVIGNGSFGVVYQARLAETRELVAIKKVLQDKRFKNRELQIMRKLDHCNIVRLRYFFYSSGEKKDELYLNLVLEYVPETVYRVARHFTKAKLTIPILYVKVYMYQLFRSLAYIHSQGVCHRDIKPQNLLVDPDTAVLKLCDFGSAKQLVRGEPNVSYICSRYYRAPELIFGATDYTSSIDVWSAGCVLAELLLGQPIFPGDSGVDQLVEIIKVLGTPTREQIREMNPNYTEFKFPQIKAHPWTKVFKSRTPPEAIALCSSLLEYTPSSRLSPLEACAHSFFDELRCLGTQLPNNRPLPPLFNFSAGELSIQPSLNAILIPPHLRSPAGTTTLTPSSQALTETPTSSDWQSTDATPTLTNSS
Procedure: as §1
The inhibitory activities of compounds of the invention against the GSK 3α enzyme isoform (Invitrogen), are evaluated by determining the level of activation/phosphorylation of the target peptide. The GSK3-α protein (500 ng/mL, 2.5 μL) is mixed with the test compound (2.5 μL at either 4 μg/mL, 0.4 μg/mL, 0.04 μg/mL, or 0.004 μg/mL) for 2 hr at RT. The FRET peptide (8 μM, 2.5 μL), which is a phosphorylation target for GSK3α, and ATP (40 μM, 2.5 μL) are then added to the enzyme/compound mixture and the resulting mixture incubated for 1 hr. Development reagent (protease, 5 μL) is added for 1 hr prior to detection in a fluorescence microplate reader (Varioskan® Flash, ThermoFisher Scientific).
as §2

[1] = system: Poly I:C-induced ICAM-1 expression in BEAS2B cells; experiment: Poly I:C-induced ICAM-1 expression in BEAS2B cells; type: cell-based; conditions: Homo sapiens, BEAS-2B, read-out: Poly IC induced ICAM1 in BEAS2B IC50
Procedure: Poly I:C is used in these studies as a simple, RNA virus mimic. Poly I:C-Oligofectamine mixture (1 μg/mL Poly I:C, ±2% Oligofectamine, 25 uL) (Invivogen Ltd., San Diego, Calif., and Invitrogen, Carlsbad, Calif., respectively) is transfected into BEAS2B cells (human bronchial epithelial cells, ATCC). Cells are pre-incubated with final concentrations of test compounds for 2 hr and the level of ICAM1 expression on the cell surface is determined by cell-based ELISA. At a time point 18 hr after poly I:C transfection, cells are fixed with 4% formaldehyde in PBS (100 μL) and then endogenous peroxidase is quenched by the addition of washing buffer (100 μL, 0.05% Tween in PBS: PBS-Tween) containing 0.1% sodium azide and 1% hydrogen peroxide. Cells are washed with wash-buffer (3×200 μL). and after blocking the wells with 5% milk in PBS-Tween (100 μL) for 1 hr, the cells are incubated with anti-human ICAM-1 antibody (50 μL) (Cell Signaling Technology, Danvers, Mass.) in 1% BSA PBS overnight at 4° C.
The cells are washed with PBS-Tween (3×200 μL) and incubated with the secondary antibody (100 μL) (HRP-conjugated anti-rabbit IgG, Dako Ltd., Glostrup, Denmark). The cells are then incubated with of substrate (50 μL) for 2-20 min, followed by the addition of stop solution (50 μL, 1N H2SO4). The ICAM-1 signal is detected by reading and reading the absorbance at 450 nm against a reference wavelength of 655 nm using a spectrophotometer. The cells are then washed with PBS-Tween (3×200 μL) and total cell numbers in each well are determined by reading absorbance at 595 nm after Crystal Violet staining (50 μL of a 2% solution in PBS) and elution by 1% SDS solution (100 μL) in distilled water. The measured OD 450-655 readings are corrected for cell number by dividing with the OD595 reading in each well.

d-U937 cells = experiment: Cell viability: MTT assay; type: cell-based, human; conditions: 1 μg/mL
Procedure: Differentiated U937 cells are pre-incubated with each test compound (final concentration 1 μg/mL or 10 μg/mL in 200 μL media indicated below) under two protocols: the first for 4 hr in 5% FCS RPMI1640 media and the second in 10% FCS RPMI1640 media for 24 h. The supernatant is replaced with new media (200 μL) and MTT stock solution (10 μL, 5 mg/mL) is added to each well. After incubation for 1 hr the media are removed, DMSO (200 μL) is added to each well and the plates are shaken lightly for 1 hr prior to reading the absorbance at 550 nm. The percentage loss of cell viability is calculated for each well relative to vehicle (0.5% DMSO) treatment. Consequently an apparent increase in cell viability for drug treatment relative to vehicle is tabulated as a negative percentage.

[2] = system: LPS-induced IL-8 release in d-U937 cells; experiment: LPS-induced IL-8 release in d-U937 cells; type: cell-based; conditions: Homo sapiens, dU937, read-out: LPS Induced Release of Cytokine in d-937 Cells IL-8 IC50
Procedure: U937 cells, a human monocytic cell line, are differentiated into macrophage-type cells by incubation with PMA (100 ng/mL) for 48 to 72 hr. Cells are pre-incubated with final concentrations of test compound for 2 hr and are then stimulated with LPS (0.1 μg/mL) (from E. coli: O111:B4, Sigma) for 4 hr. The supernatant is collected for determination of TNFα and IL-8 concentrations by sandwich ELISA (Duo-set, R&D systems). […] The relative 50% effective concentration (REC50) is determined from the resultant concentration-response curve. The inhibition of IL-8 production is calculated at each concentration of test compound by comparison with vehicle control. […] (b) LPS-Induced TNFα/IL-8 Release in PBMC Cells

Chain of p38 MAPKα (Q16539 whole entry): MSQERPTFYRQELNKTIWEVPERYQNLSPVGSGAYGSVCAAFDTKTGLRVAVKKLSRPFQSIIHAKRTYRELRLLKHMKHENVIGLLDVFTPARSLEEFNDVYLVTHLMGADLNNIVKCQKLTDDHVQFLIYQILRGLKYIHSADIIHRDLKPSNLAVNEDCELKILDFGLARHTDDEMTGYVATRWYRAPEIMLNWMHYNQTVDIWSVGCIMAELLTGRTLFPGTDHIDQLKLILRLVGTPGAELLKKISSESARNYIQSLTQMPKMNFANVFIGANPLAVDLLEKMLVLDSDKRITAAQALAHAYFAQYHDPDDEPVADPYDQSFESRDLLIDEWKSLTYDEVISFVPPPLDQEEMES

Compound	IC50 (p38 MAPKα)	IC50 (cSrc)	IC50 (Syk)	IC50 (GSK3α)	IC50 [2]	IC50 [1]	MTT Assay Cell viability at time point in d-U937 cells 4 h (d-U937 cells)	MTT Assay Cell viability at time point in d-U937 cells 24 h (d-U937 cells)
Cc1cc(Nc2nccc(Oc3ccc(NC(=O)Nc4cc(C(C)(C)C)nn4-c4ccc(OCCN5CCOCC5)cc4)c4ccccc34)n2)cc2cn[nH]c12 [Example 73, 1-(3-(tert-butyl)-1-(4-(2-morpholinoethoxy)phenyl)-1H-pyrazol-5-yl)-3-(4-((2-((7-methyl-1H-indazol-5-yl)amino)pyrimidin-4-yl)oxy)naphthalen-1-yl)urea]	69 nM	5 nM	4 nM	1800 nM	2.6 nM	2.2 nM	−ve (−ve and +ve indicate that the value is below and above respectively, the no significant effect threshold, defined as 30% inhibition at 1 μg/mL at the time point indicated.)	−ve (−ve and +ve indicate that the value is below and above respectively, the no significant effect threshold, defined as 30% inhibition at 1 μg/mL at the time point indicated.)
Cc1cc(Nc2cc(Oc3ccc(NC(=O)Nc4cc(C(C)(C)C)nn4-c4ccc(OCCN(C)C)cc4)c4ccccc34)ccn2)cc2cn[nH]c12 [Example 58]	< 1 nM	< 1 nM		1260 nM		8.3 nM	−ve (−ve and +ve indicate that the value is below and above respectively, the no significant effect threshold, defined as 30% inhibition at 1 μg/mL at the time point indicated.)	−ve (−ve and +ve indicate that the value is below and above respectively, the no significant effect threshold, defined as 30% inhibition at 1 μg/mL at the time point indicated.)
CC(C)c1cc(NC(=O)Nc2ccc(Oc3ccnc(Nc4ccc5[nH]ncc5c4)c3)c3ccccc23)n(-c2cccc(OCCN3CCOCC3)c2)n1 [Example 51]	2 nM	< 1 nM	< 1 nM	4900 nM		23.8 nM	−ve (−ve and +ve indicate that the value is below and above respectively, the no significant effect threshold, defined as 30% inhibition at 1 μg/mL at the time point indicated.)	−ve (−ve and +ve indicate that the value is below and above respectively, the no significant effect threshold, defined as 30% inhibition at 1 μg/mL at the time point indicated.)
COc1ccc(-n2nc(C3CCOC3)cc2NC(=O)Nc2ccc(Oc3ccnc(Nc4ccc5[nH]ncc5c4)n3)c3ccccc23)cc1 (stereo not drawn) [Example 8, 1-(4-((2-((1H-Indazol-5-yl)amino)pyrimidin-4-yl)oxy)naphthalen-1-yl)-3-(1-(4-methoxyphenyl)-3-(tetrahydrofuran-3-yl)-1H-pyrazol-5-yl)urea]	7 nM	2 nM	8 nM	837 nM	3.6 nM	16.8 nM	−ve (−ve and +ve indicate that the value is below and above respectively, the no significant effect threshold, defined as 30% inhibition at 1 μg/mL at the time point indicated.)	−ve (−ve and +ve indicate that the value is below and above respectively, the no significant effect threshold, defined as 30% inhibition at 1 μg/mL at the time point indicated.)

Continued by falling IC50 (p38 MAPKα), values first:

IC50 (p38 MAPKα)	IC50 (cSrc)	IC50 (Syk)	IC50 (GSK3α)	IC50 [2]	Compound	IC50 [1]	MTT Assay Cell viability at time point in d-U937 cells 4 h (d-U937 cells)	MTT Assay Cell viability at time point in d-U937 cells 24 h (d-U937 cells)
40 nM	3 nM	< 1 nM	3040 nM		Cc1cc(Nc2cc(Oc3ccc(NC(=O)Nc4cc(C(C)(C)C)nn4-c4ccc(OCCN5CCOCC5)cc4)c4ccccc34)ccn2)cc2cn[nH]c12 [Example 68]	7.6 nM	−ve (−ve and +ve indicate that the value is below and above respectively, the no significant effect threshold, defined as 30% inhibition at 1 μg/mL at the time point indicated.)	−ve (−ve and +ve indicate that the value is below and above respectively, the no significant effect threshold, defined as 30% inhibition at 1 μg/mL at the time point indicated.)
22 nM	3 nM	18 nM	4970 nM		CC(C)(C)c1cc(NC(=O)Nc2ccc(Oc3ccnc(Nc4ccc5[nH]ncc5c4)c3)c3ccccc23)n(-c2cccc(OCCN3CCOCC3)c2)n1 [Example 52]	10.2 nM	−ve (−ve and +ve indicate that the value is below and above respectively, the no significant effect threshold, defined as 30% inhibition at 1 μg/mL at the time point indicated.)	−ve (−ve and +ve indicate that the value is below and above respectively, the no significant effect threshold, defined as 30% inhibition at 1 μg/mL at the time point indicated.)
20 nM	1 nM	1 nM	1210 nM	1.6 nM	Cc1cc(Nc2nccc(Oc3ccc(NC(=O)Nc4cc(C(C)(C)C)nn4-c4ccc(OCCN5CCOCC5)nc4)c4ccccc34)n2)cc2cn[nH]c12 [Example 91, 1-(3-(tert-butyl)-1-(6-(2-morpholinoethoxy)pyridin-3-yl)-1H-pyrazol-5-yl)-3-(4-((2-((7-methyl-1H-indazol-5-yl)amino)pyrimidin-4-yl)oxy)naphthalen-1-yl)urea]	1.9 nM	−ve (−ve and +ve indicate that the value is below and above respectively, the no significant effect threshold, defined as 30% inhibition at 1 μg/mL at the time point indicated.)	−ve (−ve and +ve indicate that the value is below and above respectively, the no significant effect threshold, defined as 30% inhibition at 1 μg/mL at the time point indicated.)
